{"source": "patent US12029730B2", "about": "“Pharmaceutical composition for preventing or treating cancer, containing N-1H-benzimidazol-2-yl-3-(1H-pyrrole-1-yl)benzamide as active ingredient” (KOREA INSTITUTE OF RADIOLOGICAL & MEDICAL SCIENCES, priority 2018, dated 2024)", "type_in_all_cases": "cell-based, human", "key": {"MCF7 cells [1]": {"test_system": "MCF7 cells", "assay": "WST-8 cell viability assay, breast cancer cell line MCF7", "settings": "3.70, 11.11, 33.33 and 100 μM, FIG. 6", "protocol": "(§1) In addition, the cell line in this experiment was distributed from ATCC (American Type Culture Collection; Manassas, VA). Human-derived tumor cell lines, breast cancer cell lines MCF7 and T47D was cultured in DMEM medium containing 10% fetal bovine serum (FBS; HyClone, South Logan, UT) and 1% penicillin/streptomycin (Corning, NY, USA) at 37° C. and 5% CO2, and the BT549 breast cancer cell line was cultured in RPMI 1640 (Welgene, Daegu, Korea) as a medium used under the same conditions. Human-derived normal cell line MCF10A was cultured in DMEM/F12 (Invitrogen) medium containing 5% horse serum (Invitrogen), 1% penicillin/streptomycin, 20 ng/ml EGF (Peprotech, London, UK), […] (Sigma-Aldrich, MO, USA), 100 ng/ml cholera toxin (Cholera Toxin, Sigma-Aldrich) and 10 μg Insulin (Sigma-Aldrich) at 37° C. and 5% CO2.\n(§2) Briefly, MCF7 and MCF10A cells were seeded into 96-well plates, incubated for 24 hours, and then was treated with 42 inhibitor candidates. Among the compounds, the multi-AGC kinase inhibitor AT13148 was used as a positive control. Thereafter, the absorbance was measured at 450 nm using a Versamax microplate reader (Molecular Devices, CA, USA), and the results of the experiment were shown in FIG. 1A.\n(§3) In order to confirm whether the selected MKI-1 can kill only cancer cells, an experiment was performed by treating with MKI-1 and measuring whether the cell viability of breast cancer cell lines and normal cell lines was changed. WST-8 analysis (Cyto X™ cell viability assay kit, LPS solution, Daejeon, Korea) was performed according to the manufacturer's protocol. Cancer cells MCF7 and BT549 and normal cell line MCF10A cells were inoculated into a 96-well plate, cultured for 24 hours, and then treated with MASTL kinase inhibitors at various concentrations (3.70, 11.11, 33.33 and 100 μM). Thereafter, the absorbance was measured at 450 nm using a Versamax micro plate reader (Molecular Devices, CA, USA), and the results were shown in FIG. 6."}, "MCF10A cells": {"test_system": "MCF10A cells", "assay": "WST-8 cell viability assay, normal cell line MCF10A", "settings": "3.70, 11.11, 33.33 and 100 μM, FIG. 6", "protocol": "as §1, §2, §3"}, "BT549 cells": {"test_system": "BT549 cells", "assay": "WST-8 cell viability assay, breast cancer cell line BT549", "settings": "3.70, 11.11, 33.33 and 100 μM, FIG. 6", "protocol": "as §1, §3"}, "AKT": {"test_system": "AKT", "assay": "Western blotting of AKT and GSK-3 phosphorylation in MCF7 cells", "settings": "western blot, FIG. 5", "protocol": "20 μg of protein was separated by SDS-PAGE electrophoresis and transferred to a PVDF membrane, and the following specific antibodies were used: rabbit polyclonal antibody MASTL (Abgent); phospho-ENSA (Ser67)/ARPP19 (Ser62) (#5240), ENSA (#11915S), cleaved PARP (Asp214) (#9541), AKT (#9272), phospho-AKT (ser473) (#9271), phospho-GSK-3α/β (Ser21/9) (#9331), phospho-p70S6K (The 288) (#9205) and phospho-Chk2 (Thr68) (#2661; Cell Signaling Technology, MA); p70S6K (sc-230; Santa Cruz Biotechnology, CA, USA), phospho-H3 (S10) (06-570, Merck, NJ); mouse monoclonal antibody caspase-2 (#2224S). In addition, mouse […] antibody β-actin (C4; Santa Cruz Biotechnology, CA, USA) was used as a loading control, it was washed with 1×PBS/0.1% Tween 20, and the binding protein was detected using HRP-binding secondary antibody and improved chemiluminescence detection system. The remaining conditions of Western blotting were the same as in Example 3, and the image of the band was obtained by Amersham Imager 600 system (GE Healthcare Life Science) or X-Ray film (AG, HealthCare, SC, USA) and it was shown in FIG. 5."}, "MCF7 cells [2]": {"test_system": "MCF7 cells", "assay": "Colony formation analysis", "settings": "MCF7, cultured 15 days, compared to DMSO, FIG. 7", "protocol": "Colony formation analysis was performed to confirm whether the selected MKI-1 can effectively kill cancer cells. First, breast cancer cells MCF7 (500-1000 cells) were cultured in a 60 mm culture plate, and after 24 hours, it was treated with MASTL kinase inhibitors (AT13148, MKI-1 and GKI-1), respectively and cultured for 15 days. Cells were fixed and stained with […] to which methanol was added to quantify the number of colonies, which was shown in FIG. 7."}, "MCF7 cells [3]": {"test_system": "MCF7 cells", "assay": "Tumorsphere formation assay", "settings": "MCF7, cultured 15 days, compared to DMSO, FIG. 8", "protocol": "A tumorsphere formation assay was performed in order to determine whether the selected MKI-1 can effectively reduce the formation of tumorsphere in cancer cells, Breast cancer cells MCF7 (2500-10000 cells) was suspended in serum-free DMEM/F12 (weIGENE) containing 1% penicillin, B-27 (1:50; invitrogen), 20 ng/mL epidermal cell growth factor (R&D Systems) and 20 ng/mL fibroblast growth factor (R&D Systems) and cultured on plates with low adhesion rate. After 24 hours, the cells were treated with MASTL kinase inhibitors (AT13148, MKI-1 and GKI-1), respectively, and cultured for 15 days, and then the diameter of the tumorsphere was measured and quantified, which was shown in FIG. 8."}, "MCF7 cells [4]": {"test_system": "MCF7 cells", "assay": "3D culture spheroid formation", "settings": "MCF7 3D culture, AT13148 2 μM, GKI-1 10 μM, MKI-1 10 μM, FIG. 9", "protocol": "3D culture was performed according to the protocol of the manufacturing company TheWell Bioscience. It was inoculated into 24-wells containing a DMEM mixture containing 10,000 MCF7 cells in an MCF7 cell:hydrogel solution in a ratio of 1:3 (v/v) and VitroGel™ 3D-RGD diluted with 0.1% PBS in a ratio of 1:3 (v/v) of a hydrogel:diH2O. Thereafter, incubation was performed at 37° C. for 15 minutes to stabilize the VitroGel 3D-RGD hydrogel. To cover the hydrogel, the same volume of DMEM as the hydrogel was added, and the next day, the hydrogel was treated with a DMSO base drug containing DMSO, AT13148 (2 μM), GKI-1 (10 μM) and MKI-1 (10 μM). The medium was exchanged every 2 days for 14 to 20 days."}}, "data": [{"smiles": "NC[C@@](O)(c1ccc(Cl)cc1)c1ccc(-c2cn[nH]c2)cc1", "note": "[AT13148, reference compound]", "values": [{"measurement": "cell viability, MCF7", "setting": "MCF7 cells [1]", "result": "drastically reduced cell viability"}, {"measurement": "cell viability, normal cell line MCF10A", "setting": "MCF10A cells", "result": "drastically reduced cell viability"}, {"measurement": "cell viability, BT549", "setting": "BT549 cells", "result": "drastically reduced cell viability"}, {"measurement": "activation of AKT / phosphorylated GSK-3", "setting": "AKT", "result": "strongly inhibited the activation of AKT"}, {"measurement": "number of cancer cell colonies", "setting": "MCF7 cells [2]", "result": "significantly reduced"}, {"measurement": "tumorsphere diameter", "setting": "MCF7 cells [3]", "result": "significantly decreased"}, {"measurement": "size of cancer cell spheroid", "setting": "MCF7 cells [4]", "result": "significantly reduced"}]}]}
